Data: patent US10099995B2 (Cole Research and Design, LLC, priority 2015, dated 2018)
In brackets after ≈: the same amount, converted by molar mass.

Experiments:
[1] = physchem
Description: Two 4 mg samples of each compound were weighed.
The first sample was used to determine solubility. The sample was mixed with 1 mL of pH 7.4 phosphate buffered saline (PBS) buffer solution to produce a 4 mg/mL solution. The solution was vortexed and filtered to remove undissolved particles. The filtered solution was then diluted in pH 7.4 buffer in triplicate and stored in a refrigerator to reduce hydrolysis. The solutions were allowed to sit at room temperature for 5 minutes and then were analyzed by HPLC.
The second sample was used to prepare a calibration curve in ethanol. Calibrators were made based on expected solubility. After visually inspecting solubility in the buffer, the calibration curve was determined in order to include points above and below the expected concentration. The calibrators were stored in a refrigerator until ready for analysis by HPLC.

[2] = tested on: wound; settings: applied before wound formation or up to 24 hours after; cited from earlier work
[3] = pH 7.4
[4] = tested on: subscapular incision wound; experiment: in vivo application of compositions to subscapular incisions in a rat model (Example 13); design: species or system Sprague-Dawley rats
From the text: 12 Sprague-Dawley rats were placed randomly into 6 different groups, Study Groups 1-6, resulting in 2 animals per study group. Animals were anesthetized and the dorsal subscapular areas were shaved of hair with electric trimmers. Demarcations were made in a gently widening parallel approximately 1 cm subscapular and 2.2 cm in length. The left subscapular incision served as a control and the right subscapular incision served as the treatment site. The subscapular areas were incised with a #15 blade though the skin and subcutaneous panniculus carnosus muscle. The composition mixture corresponding to each group was then instilled into the right subscapular wound and the incision closed with 5-0 nylon interrupted fashion. Additional mixture was applied to the surface of the treatment site incision. Three biopsies were taken of normal skin at the time of incision and prior to any mixture instillation. Each site was then monitored and photographed daily. Wound gross morphology was noted daily. Sutures were removed and biopsies were taken at day 8 of the study (postoperative day #7) and sent to pathology for histology review. Histology was reviewed independently by two dermatopathologists.
A siRNA (MCP-1 inhibitor)

Row | Structure (SMILES) | Solubility ([1]; pH 7.4, aqueous buffer, thermodynamic from solid) [µg/mL] | scar [2] | time to re-epithelialization [2] | hydrolysis [3] | Solubility ([1]; pH 7.4) [µg/mL] | differences in histology between control and treatment site ([4]; 100 μM and 400 μM (either dosage), Groups 2 and 3) | difference in treatment, alone, as compared to natural resveratrol alone ([4]; Groups 2 and 3) | evidence of trichogranuloma in histology specimens ([4]; histology)
1 | Oc1ccc(/C=C/c2cc(O)cc(O)c2)cc1 [Resveratrol, trans-3,4′,5-trihydroxystilbene] | 4.8 (≈ 21 µM) | attenuated scar | up to 24 hours | – | – | – | – | –
2 | O=C(O)CCC(=O)Oc1ccc(C=Cc2cc(OC(=O)CCC(=O)O)cc(OC(=O)CCC(=O)O)c2)cc1 [Resveratrol trihemisuccinate, resveratrol trihemisuccinate] | – | – | – | quick hydrolysis | 291 (≈ 551 µM) | – | – | –
3 | O=C(O)CCCC(=O)Oc1ccc(C=Cc2cc(OC(=O)CCCC(=O)O)cc(OC(=O)CCCC(=O)O)c2)cc1 [Resveratrol trihemiglutarate, resveratrol trihemiglutarate] | – | – | – | slightly hydrolyzed | 2060 (≈ 3610 µM) | no differences | no appreciable difference | mild
